From US10307388B2, “Compositions and methods for diagnosis and treatment of inflammation” (The United States of America as represented by the …, priority 2016, dated 2019)
“Also recorded” adds a separate entry of the source. One block for each compound: values may come before it.

How the values were obtained:
[1] = Total serum fatty acid concentrations in dolphins fed modified fish diet; settings: for Total serum fatty acid concentration: case dolphins fed modified diet (n = 20); for concentration at 0 month / concentration at 1 month / concentration at 3 month / concentration at 6 month: bottlenose dolphin (Tursiops truncatus)
Procedure: This study examined the impact on inflammation by modifying fatty acid profiles through the diet in 20 MMP dolphins (“Group A dolphins”). The dolphins lived in netted enclosures within San Diego Bay. […] On blood collection days, Group A dolphins were fed one-third of their daily diet in the morning after their routine overnight fast and 2h postprandial, in-water, and trained blood samples were drawn (typically near 10:00 a.m.). An additional ten MMP dolphins (“Group B dolphins”) were maintained on the baseline capelin diet throughout the study period.
Two hour post-prandial samples were collected from Group A and Group B dolphins at baseline (month 0) and at three time points following the switch to the modified diet: months 1, 3, and 6. Dolphins were assessed for changes in serum fatty acid concentrations (total and various forms) and indices of inflammation, including erythrocyte sedimentation rate and alkaline phosphatase.
Blood was collected into BD Vacutainer serum separator tubes (for serum fatty acid profiles) or an evacuated tube containing EDTA (K3). Serum separator tubes were centrifuged at 3000 rpm for 10 minutes within 30 to 60 minutes of collection and chilled during processing until shipment. Serum was transferred to cryovials and stored at −80° C. until shipment on dry ice via overnight courier to the reference laboratories.
Total serum fatty acid profiles were performed by the Genetics Laboratories at the Kennedy Krieger Institute. […] Each run was required to pass clinical laboratory quality control before the data were released. […] Percent fatty acids in serum was used as a sturdier index to help reduce potential variability in serum among study dolphins.
Statistical analyses were conducted using World Programming System software (World Programming Ltd., Hampshire, United Kingdom). Significance was defined as a P value less than or equal to 0.05. Mean daily dietary intake of individual fatty acids were compared between pre-study and in-study diets for Group A and Group B dolphins using Wilcoxon rank sum tests. Indices of inflammation (erythrocyte sedimentation rate and alkaline phosphatase) and serum fatty acid concentrations (total and individual classes) from Month 1, 3, and 6 were compared with Month 0 for Group A and Group B dolphins using repeated measures ANOVA (MIXED model). […] Fatty acids that were independent predictors of erythrocyte sedimentation rate were then tested for linear associations with erythrocyte sedimentation rate using simple linear regressions. Fatty acids that were independent predictors of erythrocyte sedimentation rate and had inverse linear associations with these indices (defined as a P value less than or equal to 0.05 and an R^2 greater than or equal to 0.1), were characterized as fatty acids that independently predicted improved inflammation.

[2] = system: erythrocyte sedimentation rate; test: Regression of serum fatty acid forms against erythrocyte sedimentation rate in dolphins on modified diet; type: in vivo, bottlenose dolphin (Tursiops truncatus); settings: for Serum hexosylceramide concentration resulting in erythrocyte sedimentation rates lower than 15 mm/hr (threshold effect): FIGS. 3A-3B
IL-6, IL-18, and MCP-1 = test: Serum adipokines (cytokines) in high fat diet induced obese mice after daily oral C15:0; type: in vivo, C57BL/6J mice; settings: obese HFD mice
Procedure: (§1) This study examined the impact of daily oral administration of synthetic pentadecanoic acid (C15:0) on inflammation in an obese mouse model. Twenty C57BL/6J mice were fed a high fat diet (HFD) (D12492, 60% kcals fat) for 8 weeks. Study mice were then divided into the following two groups of ten: vehicle controls and C15:0-treated (5 mg/kg body weight). The predicted therapeutic dose of 5 mg/kg was based upon modified diet studies in the dolphin model.

[3] = Tolerability, body weight and food intake in high fat diet obese mice given C15:0; type: in vivo
Procedure: as §1
Mice in the C15:0 treatment group tolerated the test article throughout the study. […] No changes were found in body weight, percent body weight change, or food intake when comparing the study groups (not shown).

[4] = Serum fatty acid form concentrations (complex lipidomics) in dolphins fed modified fish diet; type: in vivo; settings: bottlenose dolphin (Tursiops truncatus), case dolphins fed modified diet (n = 20), read-out: Serum concentration, FFA (free fatty acid) form; for concentration at 0 month: Month 0 (baseline); for concentration at 1 month: Month 1; for concentration at 3 month: Month 3; for concentration at 6 month: Month 6
Procedure: Determination of serum fatty acid concentrations, including a variety of fatty acid classes, were performed by Metabolon, Inc. (Durham, N.C.) using complex lipidomics. […] The extracts were concentrated under nitrogen and reconstituted in 0.25 mL of dichloromethane:methanol (50:50) containing 10 mM ammonium acetate. The extracts were placed in vials for infusion-MS analyses, performed on a SelexION equipped Sciex 5500 QTRAP using both positive and negative mode electrospray. Each sample was subjected to 2 analyses, with IMS-MS conditions optimized for lipid classes monitored in each analysis. The 5500 QTRAP was operated in MRM mode to monitor the transitions for over 1,100 lipids from up to 14 lipid classes. Individual lipid species were quantified based on the ratio of signal intensity for target compounds to the signal intensity for an assigned internal standard of known concentration. Lipid class concentrations were calculated from the sum of all molecular species within a class, and fatty acid compositions were determined by calculating the proportion of individual fatty acids within each class.

[5] = Month 0 (baseline), 2h postprandial

Structure (SMILES): CCCCCCCCCCCCCCCCCCCCCCCCCC(=O)O [C26:0]
Total serum fatty acid concentration [1, 5]: 1.0 ± 0.1 µM
Total serum fatty acid concentration ([1]; Month 1, 2h postprandial): 0.8 ± 0.1 µM
Total serum fatty acid concentration ([1]; Month 3, 2h postprandial): 0.9 ± 0.1 µM
Total serum fatty acid concentration ([1]; Month 6, 2h postprandial): 0.9 ± 0.1 µM

concentration at 0 month ([1]; serum, oral): 18 ± 3 µM
concentration at 1 month ([1]; serum, oral): 17 ± 3 µM
concentration at 3 month ([1]; serum, oral): 18 ± 3 µM
concentration at 6 month ([1]; serum, oral): 18 ± 3 µM
Structure (SMILES): CCCCCCCCCCCCCCCCCCCCCCCC(=O)O [C24:0, lignoceric acid]

Structure (SMILES): CCCCCCCCCCCCCCCCCCCCCC(=O)O [C22:0, behenic acid]
Serum hexosylceramide concentration resulting in erythrocyte sedimentation rates lower than 15 mm/hr (threshold effect) [2]: greater than 0.11 uM
Total serum fatty acid concentration [1, 5]: 23 ± 4 µM
Total serum fatty acid concentration ([1]; Month 1, 2h postprandial): 21 ± 3 µM
Total serum fatty acid concentration ([1]; Month 3, 2h postprandial): 23 ± 3 µM
Total serum fatty acid concentration ([1]; Month 6, 2h postprandial): 24 ± 5 µM

Structure (SMILES): CCCCCCCCCCCCCCC(=O)O [C15:0, pentadecanoic acid]
Serum IL-6 (IL-6, IL-18, and MCP-1; 5 mg/kg daily gastric gavage, Day 84 (n = 10), vehicle control 60 ± 68): 19 ± 11
Serum MCP-1 (IL-6, IL-18, and MCP-1; 5 mg/kg daily gastric gavage, Day 84 (n = 10), vehicle control 83 ± 31): 52 ± 25
Serum IL-18 (IL-6, IL-18, and MCP-1; 5 mg/kg daily gastric gavage, Day 84 (n = 10), vehicle control 206 ± 84): 101 ± 86
Inflammation and adipokines (IL-6, IL-18, and MCP-1) compared to vehicle controls (IL-6, IL-18, and MCP-1; 5 mg/kg daily oral, 12 weeks, 5 mg/kg): lower; also recorded: reduced
Serum cholesterol ester concentration resulting in erythrocyte sedimentation rates lower than 15 mm/hr (threshold effect) ([2]; FIGS. 2A-2B): greater than 60 uM
Early mortalities in treated group ([3]; mouse, in vivo, 5 mg/kg): no early mortalities
Tolerability of the test article ([3]; mouse, in vivo, 5 mg/kg): tolerated
Body weight, percent body weight change, or food intake vs control group ([3]; obese HFD mice, 5 mg/kg daily gastric gavage, 12 weeks): No changes
Total serum fatty acid concentration ([1]; Month 1, 2h postprandial): 94 ± 33 µM
concentration at 0 month ([4]; serum, oral): 3.8 ± 1.3 µM
concentration at 1 month ([4]; serum, oral): 4.2 ± 1.5 µM
concentration at 3 month ([4]; serum, oral): 3.6 ± 0.8 µM
concentration at 6 month ([4]; serum, oral): 3.8 ± 1.3 µM

Structure (SMILES): CCCCCCCCCCCCCCCC(=O)O [C16:0, palmitic acid]
Total serum fatty acid concentration [1, 5]: 1445 ± 194 µM
Total serum fatty acid concentration ([1]; Month 1, 2h postprandial): 1372 ± 199 µM
Total serum fatty acid concentration ([1]; Month 3, 2h postprandial): 1505 ± 221 µM
Total serum fatty acid concentration ([1]; Month 6, 2h postprandial): 1450 ± 155 µM

Total serum fatty acid concentration ([1]; Month 1, 2h postprandial): 82 ± 21 µM
Structure (SMILES): CCCCCCCCCCCCCCCCC(=O)O [C17:0, heptadecanoic acid]
Serum phosphatidylcholine concentration resulting in erythrocyte sedimentation rates lower than 15 mm/hr (threshold effect) ([2]; FIGS. 2A-2B): greater than 30 uM

concentration at 0 month ([1]; in vivo): 94 ± 22 µM
concentration at 1 month ([1]; in vivo): 87 ± 17 µM
concentration at 3 month ([1]; in vivo): 98 ± 17 µM
concentration at 6 month ([1]; in vivo): 96 ± 15 µM
concentration at 0 month ([4]; in vivo): 6.6 ± 2.5 µM
concentration at 1 month ([4]; in vivo): 4.4 ± 1.4 µM
concentration at 3 month ([4]; in vivo): 5 ± 2.3 µM
concentration at 6 month ([4]; in vivo): 17 ± 10 µM
Structure (SMILES): CCCCCCCCCCCCCCCCCCCC(=O)O [C20:0, arachidic acid]
Serum hexosylceramide concentration resulting in erythrocyte sedimentation rates lower than 15 mm/hr (threshold effect) [2]: greater than 0.20 uM
